# Data: publication PMC7710018, “Restoration of motor learning in a mouse model of Rett syndrome following long-term treatment with a novel small-molecule activator of TrkB” (Disease Models & Mechanisms, 2020)
# Read-outs that look alike come from different tables or passages of the source.
# Legend:
# [1] = Metabolic stability (Cerep); format: in vitro ADME, human; details: 10 µM, 5 time points
# Protocol: (§1) To evaluate the relative binding specificity of LM22A-4 ([Massa et al., 2010]) and PTX-BD4-3, binding to a broad range of 55 pharmacologically relevant receptors, including numerous neurotransmitter and G-protein coupled receptors was assessed using standard radioligand competition binding assays (ExpressSProfile) performed by Cerep, Inc. (Seattle, WA, USA). In addition, ADME-Tox analysis was performed by Cerep, Inc. All experimental conditions are described on the Cerep website (www.cerep.fr).
# Aqueous Human CYP inhibition (10µM) AMES hERG solubility hepatocyte DNA testing
# (µM) metabolic mutagenesis
# PTX‐BD4‐3 200 >60 negative negative negative
# Table S2. Solubility, metabolism and toxicity screens for LM22A-4 […]
# and PTX-BD4-3. […]
# (also on this page, place not known: Disease Models & Mechanisms: doi:10.1242/dmm.044685: Supplementary information Disease Models & Mechanisms • Supplementary information)
# [2] = Brain:plasma partitioning (LC-MS/MS); format: in vivo, mouse; details: mice; for concentration at 1 h / concentration at 3 h / Kp at 1 h / Kp at 3 h / plasma levels: 50 mg/kg i.p.; for Kp at 1 h / Kp at 3 h: brain/plasma, read-out: brain-to-plasma ratio; for concentration at 1 h / Kp at 1 h / plasma levels: 1 h; for plasma levels: in nM (unit assumed)
# Protocol: Brain and plasma concentrations of LM22A-4, PTX-BD4-3 and atenolol were determined by LC-MS/MS by Absorption Systems (Exton, PA, USA). Male C57BL/6 were dosed intraperitoneally one time with LM22A-4 or PTX-BD4-3 suspended in water at 50 mg/kg (10 ml/kg). Mice were sacrificed at 1 h or 3 h post dose (n=3-4 mice/time point), and brain and plasma samples were collected.
# Figure S1. Brain and plasma levels, and brain to plasma ratios for […]
# PTX-BD4-3 following IP administration in Wt mice. Brain and plasma levels were determined by LC-MS/MS and used to calculate the brain:plasma ratios at 1 and 3 hours after IP administration of 50 mg/kg LM22A-4 (black), or PTX- […]
# in mice (n=11-12 mice/time point; data shown are mean + s.e.m.)
# *p<0.05 compared to LM22A-4 at same time point; one-tailed Student’s t-test. […]
# [3] = system: 3T3-TrkB cells; test: NIH-3T3 cell survival (ViaLight); format: cell-based, mouse; details: 72-96 h
# Protocol: Fig. 2. PTX-BD4-3 promotes cell survival preferentially through TrkB. (A-D) Neurotrophin receptor-expressing NIH-3T3 cells were incubated in culture medium (CM) alone or in medium plus either the indicated neurotrophins (BDNF, NGF, NT-3) or PTX-BD4-3 or its parent compound LM22A-4 for 72-96 h, after which survival was measured using the ViaLight assay. […] Scale bar: 10 μm. (B) Survival dose-response curves for PTX-BD4-3 and LM22A-4 in 3T3-TrkB cells. ^§P≤0.001 compared to CM alone. (C) Representative images of 3T3-TrkA, 3T3-TrkC and 3T3-p75 cells grown in the presence of CM alone, CM+neurotrophin or CM+PTX-BD4-3. Scale bar: 10 μm. NGF, NT-3 and BDNF served as positive controls for 3T3-TrkA, 3T3-TrkC and 3T3-p75 cells, respectively. (D) PTX-BD4-3 (1000 nM) had no effect on survival of 3T3-TrkA, 3T3-TrkC or 3T3-p75 cells compared to medium alone. *P≤0.05, ***P≤0.001 compared to CM alone. For each determination in B and D, n=10-32 wells derived from four to five independent experiments. Statistical significance was determined by one-way ANOVA with Dunnett's post hoc multiple comparison test. (E,F) […] protein was extracted from human cementoblast-like cell (HCEM) cultures treated with either culture medium alone, BDNF, LM22A-4 or PTX-BD4-3, immunoprecipitated with anti-TrkB antibody and then probed sequentially on western blots with anti-Shc and anti-TrkB antibody. The ratio of Shc to TrkB in treated cultures was normalized and compared to control (CM alone) using Kruskal-Wallis ANOVA followed by Dunn's multiple comparisons test (*P≤0.05, ^§P≤0.001). n=13 independent experiments, and each protein sample was run on duplicate western blots and the normalized values averaged. RLUs, relative light units.
# Mouse NIH-3T3 cells expressing TrkA (NIH-3T3-TrkA) were provided by Dr William Mobley (University of California at San Diego, San Diego, CA, USA), and NIH-3T3 cells expressing TrkB (NIH-3T3-TrkB) or TrkC (NIH-3T3-TrkC) were provided by Dr David Kaplan (University of Toronto, Toronto, ON, Canada). Cells were propagated in Dulbecco's modified Eagle medium (DMEM) supplemented with 10% fetal bovine serum (FBS; Invitrogen) and 200-400 µg/ml Geneticin. Cells were seeded into 24-well plates (30,000 cells/well) and cultured in medium consisting of 50% PBS and 50% DMEM without supplements. Following exposure to BDNF (20 ng/ml, 0.7 nM) or 10-1000 nM LM22A-4 or PTX-BD4-3 for 72-96 h, cells were suspended in 50 µl lysis buffer, transferred to white, opaque 96-well culture plates and survival was measured using the ViaLight Assay (Lonza Group, Rockland, ME, USA).
# [4] = biological target: T1, M3 (h) (Homo sapiens, UniProt P20309); test: Cerep ExpresSProfile radioligand binding; details: 10 micromolar; antagonist radioligand; read-out: % Inhibition of Control Specific Binding 2nd
# T1 construct: purchased Cerep (ExpresSProfile)
# Protocol: as §1, with “(www.cerep.fr). […]” for “(www.cerep.fr).”
# (§2) Table S1. In vitro binding assays. An ExpresSProfile screen of PTX-BD4-3 binding to a panel of pharmacologically relevant receptors was conducted by Cerep, Inc.
# (§3) (Eurofins Panlabs, MO). The results are expressed as percent inhibition of control specific binding obtained in the presence of 10 micromolar PTX-BD4-3. In this assay, values below 50% indicate no specific binding of PTX-BD4-3. The assay was negative for PTX-BD4-3 binding to all of the 55 receptors in the screen.
# (§4) (also on this page, place not known: 2B 5‐HT 3 5‐HT 5a 5‐HT 6 5‐HT 7 (agonis t VPAC 1 V 1 Ca 2+ K V SK Ca Na + Cl ‐ 5‐HT Disease Models & Mechanisms: doi:10.1242/dmm.044685: Supplementary information Disease Models & Mechanisms • Supplementary information)
# [5] = biological target: T2, H2 (h) (Homo sapiens, UniProt P25021); test: Cerep ExpresSProfile radioligand binding; details: 10 micromolar; antagonist radioligand; read-out: % Inhibition of Control Specific Binding 1st
# T2 construct: purchased Cerep (ExpresSProfile)
# Protocol: as §1, with “(www.cerep.fr). […]” for “(www.cerep.fr).”
# as §2, §3, §4
# [6] = male, C57BL/6, mouse, brain, ip, read-out: brain levels
# [7] = male, C57BL/6, mouse, plasma, ip, read-out: plasma level
# T2 sequence (P25021 whole entry): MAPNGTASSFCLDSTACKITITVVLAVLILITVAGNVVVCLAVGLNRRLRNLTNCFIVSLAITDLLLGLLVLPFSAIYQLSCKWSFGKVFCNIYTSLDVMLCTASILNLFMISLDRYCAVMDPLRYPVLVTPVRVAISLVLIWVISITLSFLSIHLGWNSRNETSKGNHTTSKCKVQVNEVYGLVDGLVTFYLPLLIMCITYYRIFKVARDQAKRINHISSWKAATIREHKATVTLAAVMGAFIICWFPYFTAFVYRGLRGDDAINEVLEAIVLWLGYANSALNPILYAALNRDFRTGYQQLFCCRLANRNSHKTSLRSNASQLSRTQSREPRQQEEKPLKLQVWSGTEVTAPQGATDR
# T1 sequence (P20309 whole entry): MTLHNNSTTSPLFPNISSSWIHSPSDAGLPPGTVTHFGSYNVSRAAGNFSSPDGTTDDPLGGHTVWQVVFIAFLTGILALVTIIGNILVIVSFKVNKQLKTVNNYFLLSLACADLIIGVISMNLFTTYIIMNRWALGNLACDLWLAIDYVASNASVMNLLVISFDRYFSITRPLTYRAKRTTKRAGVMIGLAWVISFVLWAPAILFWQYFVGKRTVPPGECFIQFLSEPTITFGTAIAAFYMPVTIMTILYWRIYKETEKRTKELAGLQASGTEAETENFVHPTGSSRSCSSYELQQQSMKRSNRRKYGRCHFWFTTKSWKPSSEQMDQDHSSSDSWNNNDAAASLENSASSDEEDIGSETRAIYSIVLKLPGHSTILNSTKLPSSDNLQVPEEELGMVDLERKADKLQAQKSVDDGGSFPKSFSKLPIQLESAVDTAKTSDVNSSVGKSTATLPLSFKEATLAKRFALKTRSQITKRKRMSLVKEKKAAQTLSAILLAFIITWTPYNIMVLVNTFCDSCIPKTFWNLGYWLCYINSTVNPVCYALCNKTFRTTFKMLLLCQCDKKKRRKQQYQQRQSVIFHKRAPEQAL
SMILES,Human hepatocyte metabolic stability [1],"concentration at 1 h [2, 6]","concentration at 3 h [2, 6]","Kp at 1 h ([2]; male, C57BL/6, mouse, ip)","Kp at 3 h ([2]; male, C57BL/6, mouse, ip)","concentration at 3 h [2, 7]",plasma levels [2],"survival of 3T3-TrkB cells ([3]; 1000 nM, representative images)",inhibition at 10 µM [4],inhibition at 10 µM [5],"half-life ([2]; male, C57BL/6, mouse, brain and plasma, ip, 50 mg/kg, systemic (i.p.) administration)","survival of 3T3-TrkB cells ([3]; serum-free medium, ViaLight, compounds 10-1000 nM dose-response, BDNF 20 ng/ml)"
"O=C(NCCO)c1cc(C(=O)NCCO)cc(C(=O)NCCO)c1 [LM22A-4, N,N′,N′′-tris(2-hydroxyethyl)-1,3,5-benzenetricarboxamide, reference compound]",> 60 min,0.2 µM,0.0532 µM,0.0268,0.133,2350 µM,9193.46,support the survival,,,,
"COCCN(C)C(=O)c1cc(C(=O)N(C)CCOC)cc(C(=O)N(C)CCOC)c1 [PTX-BD4-3, benzene-1,3,5-tricarboxylic acid tris-[(2-methoxy-ethyl)-methyl-amide]]",> 60 min,0.227 µM,0.0361 µM,0.0329,0.271,361 µM,10011.16,support the survival,0.8%,2.8%,< 3 h,promoted survival
